From patent US20230346827A1 (priority 2020, published 2023) come the findings set out here.

The test system of test [1] is human purified monocytes. The test can be described thus: Stimulated IL-6 release from human purified monocytes (ELISA). It counts as cell-based. The following applies: 24 h, LMW-DS 60-600 µg/ml, heparin 2.0-20 µg/ml, dexamethasone 3.0 µM. As for the experimental part:
Peripheral blood mononuclear cells (PBMC) were isolated from healthy donors through Ficoll-Paque PLUS (GE Healthcare; 11778538) density centrifugation. Monocytes were purified using the EasySep™ human monocyte enrichment kit (StemCell) that purifies monocytes ‘untouched’ to maintain their phenotype.
Monocytes were cultured in the absence (unstimulated PBS vehicle controls) or presence of stimulation (LPS or peptidoglycan) in the absence (vehicle) or presence of LMW-DS (Tikomed AB, Viken, Sweden, WO 2016/076780; three concentrations; top concentration 600 µg/ml, 200 µg/ml and 60 µg/ml), heparin (2.0, 6.0 or 20 µg/ml; equivalent to 0.406, 1.218 and 4.06 units/ml; Sigma Aldrich) or dexamethasone (3.0 µM; Sigma Aldrich) for 24 hours at 37° C., 5% CO2. Following centrifugation, cell culture supernatants were removed and stored at -20° C. awaiting analysis for IL-6 by ELISA. Levels of IL-6 were quantified in the supernatant by ELISA (R&D systems) according to manufacturer’s instructions.

The test system of test [2] is ALS patients. The test can be described thus: Serum metabolites (HPLC) in ALS patients before/after five weekly LMW-DS 1.0 mg/kg s.c. (Example 12). To be noted: post- vs pre-treatment. It counts as in vivo, human. As for the experimental part:
After an initial screening visit, patients had five weekly dosing of a single LMW-DS (ILB®, Tikomed AB, Viken, Sweden, WO 2016/076780) injection of 1.0 mg/kg body weight in saline into the subcutaneous fat of the lower abdomen.
Peripheral venous blood samples were been collected from the patients after at least 15 minutes of complete rest, using the standard tourniquet procedure, from the antecubital vein into a single VACUETTE® polypropylene tube containing serum separator and clot activator (Greiner-Bio One GmbH, Kremsmunster, Austria). After 30 minutes at room temperature, blood withdrawals were centrifuged at 1,890 × g for 10 min and the resulting serum samples were stored at -20° C. until analysis.
After defrost, an aliquot of 500 µl of each serum sample was supplemented with 1 ml of HPLC-grade acetonitrile, vortexed for 60 seconds, centrifuged at the maximum speed in a top-bench centrifuge to precipitate proteins. Supernatants were washed with large volumes of HPLC-grade chloroform to remove organic solvent, centrifuged and the upper aqueous phases were transferred in different tubes, clearly labeled to identify the sample and stored at -80° C. until analyzed to determine different water-soluble compounds.
A second aliquot of about 300 µl of each serum sample was light-protected and then processed to extract fat-soluble antioxidants using a method described in detail elsewhere (Lazzarino et al., Single-step preparation of selected biological fluids for the high performance liquid chromatographic analysis of fat-soluble vitamins and antioxidants. J Chromatogr A. 2017; 1527: 43-52.). Briefly, samples were supplemented with 1 ml of HPLC-grade acetonitrile, vigorously vortexed for 60 s and incubated at 37° C. for 1 h in a water bath under agitation, to allow the full extraction of lipid soluble compounds. Samples were then centrifuged at 20,690 × g for 15 min at 4 C to precipitate proteins and the clear supernatants were saved at -80° C. until the HPLC analysis of fat-soluble vitamins and antioxidants.
In deproteinized serum samples, the following water-soluble compounds were separated and quantified by HPLC, according to methods described elsewhere (Tavazzi et al., Simultaneous high performance liquid chromatographic separation of purines, pyrimidines, N-acetylated amino acids, and dicarboxylic acids for the chemical diagnosis of inborn errors of metabolism. Clin Biochem. 2005; 38: 997-1008; Romitelli et al., Comparison of nitrite/nitrate concentration in human plasma and serum samples measured by the enzymatic batch Griess assay, ion-pairing HPLC and ion-trap GC-MS: The importance of a correct removal of proteins in the Griess assay. J Chromatogr B Analyt Technol Biomed Life Sci. 2007; 851: 257-267; Amorini et al., Metabolic profile of amniotic fluid as a biochemical tool to screen for inborn errors of metabolism and fetal anomalies. Mol Cell Biochem. 2012; 359: 205-216): hypoxhantine, xanthine, uric acid, malondialdehyde (MDA), nitrite, nitrate, N-acetylaspartate (NAA), citrulline (CITR), alanine (ALA), and ornithine (ORN).
The following fat-soluble vitamins and antioxidants in deproteinized serum samples were separated and quantified by HPLC according to a method as previously described (Lazzarino et al., Cerebrospinal fluid ATP metabolites in multiple sclerosis. Mult Scler J. 2010; 16: 549-554): α-tocopherol (vitamin E) and γ-tocopherol. In addition to the abovementioned fat-soluble antioxidants and vitamins, also the concentration of total bilirubin was determined in serum samples.
Comparison of the Pre- and Post-treatment subgroups was performed by the two-tailed Student’s t-test for paired samples. The comparison of each subgroup with the group of control healthy subjects was carried out by the two-tailed non-parametric Mann-Whitney U-test for unpaired observations. Differences with p < 0.05 were considered statistically significant.

For test [3], the system named is ALS patients. The test can be described thus: Serum lactate in ALS patients, dextran sulfate 2 mg/kg s.c. weekly for ten weeks (Example 14). Format: in vivo, human. The arrangement: serum lactate levels: unit not given here. On the procedure: (§1) Dextran sulfate (ILB®, Tikomed AB, Viken, Sweden, WO 2016/076780) was administered at 2 mg/kg by […] subcutaneous injection once a week for ten weeks to 8 human patients suffering from ALS.
Peripheral venous blood samples were collected from patients before (week 0) and after dextran sulfate administration (week 5 and week 10) after at least 15 minutes of complete rest, using the standard tourniquet procedure, from the antecubital vein into a single VACUETTE® polypropylene tube containing serum separator and clot activator (Greiner-Bio One GmbH, Kremsmunster, Austria). After 30 mins at room temperature (20-25° C.), blood withdrawals were centrifuged at 1,890 × g for 10 min to get serum aliquots.
A serum aliquot of 500 µl was supplemented with 1 ml of HPLC-grade acetonitrile, vortexed for 60 secs, centrifuged at the maximum speed in a top-bench centrifuge to precipitate proteins. Supernatants were washed with large volumes of HPLC-grade chloroform to remove organic solvent, centrifuged and the upper aqueous phases were transferred to different tubes, clearly labeled to identify the sample and stored at -80° C. until analyzed to determine different water-soluble compounds.

Test [4] concerns ALS patients. Briefly: ALSAQ-40 sub-scores in ALS patients, dextran sulfate 2 mg/kg s.c. weekly for ten weeks (Example 14). It counts as in vivo, human. The following applies: after 10 weeks of treatment. As for the experimental part:
as §1
ALSAQ-40 was assessed pre-treatment and weekly thereafter for the 10 treatment weeks and for the visits at the follow-up period.

In the case of sodium salt of dextran sulfate [LMW-DS], the “LPS-stimulated IL-6 release” value in test [1] (LPS 0.01 ng/ml) is on record as “concentration dependent statistically significant inhibition”. In addition, the “peptidoglycan-stimulated IL-6 release” value in test [1] (peptidoglycan 30 ng/ml) is “concentration dependent statistically significant increase”. In test [2], the “serum ALA” value was “normalized”, the “serum CITR” value is on record as “ameliorated”, the “serum MDA” value is on record as “decreased” and the “serum NAA” value is on record as “Significantly lower”. Also, in test [2], the “serum ORN/CITR ratio” value is given as “ameliorated”, the serum nitrate result is reported as “decreased”, the “serum nitrite + nitrate” value was “decreased” and the “serum sum of oxypurines” value is given as “decreased”. Moreover, in test [2], the serum total bilirubin entry is “decreased”, the serum uric acid entry was “decreased”, the “serum α-tocopherol” value is given as “ameliorated” and the “serum γ-tocopherol” value is given as “ameliorated”. Moreover, in test [3] (after 5 weeks of treatment), the “increase of serum lactate levels vs Week 0” value is on record as 29.8% and the serum lactate levels turned out to be 2.31±1.02. In test [3] (after 10 weeks of treatment), the “increase of serum lactate levels vs Week 0” value is 70% and the serum lactate levels was found to be 3.02±1.59. In test [4], the “ALSAQ-40 ADL sub-score” value is listed as 44.4 ± 24.7, the “ALSAQ-40 PM sub-score” value came out at 22.7 ± 20.2, the “decline of ALSAQ-40 ADL sub-score” value is on record as 18.6% and the “decline of ALSAQ-40 PM sub-score” value was 16%.
